Results reported in patent US20220395553A1, “CXCR4 ANTAGONIST PEPTIDES” (COHBAR, INC., priority 2019, published 2022).
Square brackets hold non-standard residues; d marks the D form. Peptide text beside a SMILES is read from it.

Molecular target: human CXCR4 (Homo sapiens, UniProt P61073)
Assay: CXCR4/CXCL12 binding, HTRF format, single concentration (Example 23)
Design: host or cells: HEK293 (Tag-lite CXCR4 cells, frozen aliquots, transient expression)
Conditions: 15 nM CXCR4R fluorescent probe, 3 hours, HEK293 Tag-lite CXCR4 cells
Procedure: Peptides were initially prepared as 1 mM stock in H2O and tested at a final concentration of 400 nM. Following the manufacture's protocol, a frozen aliquot of Tag-lite CXCR4 cells was thawed and immediately seeded onto 384-well plates in TLB. Immediately following the addition of cells, 400 nM peptide (final concentration) in TLB was added to the appropriate well. Then 15 nM (final concentration; EC80) of CXCR4R fluorescent probe was added to each well to initiate the HTRF assay. The plates were covered in aluminum foil and left at room temperature for 3 hours. Following the 3 hour incubation period, the plates were removed from the incubator and fluorescence measured using a Cytation 1 plate reader using a HTRF filter cube ([…]; BioTek; Winooski, Vt.). According manufacture's instruction data reduction was performed by calculating the ratio of 665 nm signal (TRF of 665 nm excitation by 620 emission; amount of CXCR4R fluorescent probe bound to terbium labeled CXCR receptor)/620 nm signal (620 excitation by 330 nm light source; normalization factor for amount of terbium labeled CXCR4 receptor in well)×10,000.

Chain of human CXCR4 (P61073 whole entry): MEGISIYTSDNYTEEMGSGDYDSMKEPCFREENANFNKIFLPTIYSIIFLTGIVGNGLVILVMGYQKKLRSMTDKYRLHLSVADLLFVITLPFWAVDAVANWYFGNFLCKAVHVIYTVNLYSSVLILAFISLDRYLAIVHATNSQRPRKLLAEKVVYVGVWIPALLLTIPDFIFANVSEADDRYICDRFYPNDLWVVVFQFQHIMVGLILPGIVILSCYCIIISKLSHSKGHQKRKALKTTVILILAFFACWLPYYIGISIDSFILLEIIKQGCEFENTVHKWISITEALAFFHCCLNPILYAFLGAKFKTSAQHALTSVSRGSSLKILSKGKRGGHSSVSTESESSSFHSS

SMILES	Percent Inhibition of CXCR4/CXCL12 Binding (400 nM peptide) [%]
CC(C)C[C@H](NC(=O)[C@H](CO)NC(=O)[C@H](CO)NC(=O)[C@H](CCCNC(=N)N)NC(=O)[C@@H](NC(=O)[C@H](CO)NC(=O)[C@H](Cc1c[nH]cn1)NC(=O)[C@H](Cc1c[nH]cn1)NC(=O)[C@H](Cc1ccc(O)cc1)NC(=O)[C@H](CCCNC(=N)N)NC(=O)[C@H](CCCNC(=N)N)NC(=O)[C@@H](N)CC(C)C)C(C)C)C(=O)N[C@@H](CCCNC(=N)N)C(=O)N1CCC[C@H]1C(=O)N[C@@H](Cc1ccc(O)cc1)C(=O)N[C@H](C(=O)O)[C@@H](C)O [compound 24] (H-LRRYHHSVRSSLRPYT-OH; N-terminus and C-terminus assumed)	8
CC(C)C[C@H](N)C(=O)N[C@@H](CCCNC(=N)N)C(=O)N[C@@H](CCCNC(=N)N)C(=O)N[C@@H](Cc1ccc(O)cc1)C(=O)N[C@@H](Cc1c[nH]cn1)C(=O)N[C@@H](Cc1c[nH]cn1)C(=O)N[C@@H](CO)C(=O)N[C@H](C(=O)N[C@@H](CCCNC(=N)N)C(=O)N[C@@H](CO)C(=O)N[C@@H](CO)C(=O)O)C(C)C [compound 29] (H-LRRYHHSVRSS-OH; N-terminus and C-terminus assumed)	14
CC(C)C[C@H](NC(=O)[C@H](CO)NC(=O)[C@H](CO)NC(=O)[C@H](CCCNC(=N)N)NC(=O)[C@@H](NC(=O)[C@H](CO)NC(=O)[C@H](Cc1c[nH]cn1)NC(=O)[C@H](Cc1c[nH]cn1)NC(=O)[C@H](Cc1ccc(O)cc1)NC(=O)[C@H](CCCNC(=N)N)NC(=O)[C@H](CCC(=O)O)NC(=O)[C@@H](N)CC(C)C)C(C)C)C(=O)N[C@@H](CCCNC(=N)N)C(=O)N1CCC[C@H]1C(=O)N[C@@H](Cc1ccc(O)cc1)C(=O)O [compound 19] (H-LERYHHSVRSSLRPY-OH; N-terminus and C-terminus assumed)	44
CC(C)C[C@H](NC(=O)[C@H](CO)NC(=O)[C@H](CO)NC(=O)[C@H](CCCNC(=N)N)NC(=O)[C@@H](NC(=O)[C@H](CO)NC(=O)[C@H](Cc1c[nH]cn1)NC(=O)[C@H](Cc1c[nH]cn1)NC(=O)[C@H](Cc1ccc(O)cc1)NC(=O)[C@H](CCCNC(=N)N)NC(=O)[C@H](CCCNC(=N)N)NC(=O)[C@@H](N)CC(C)C)C(C)C)C(=O)N[C@@H](CCCNC(=N)N)C(=O)O [compound 27] (H-LRRYHHSVRSSLR-OH; N-terminus and C-terminus assumed)	10
CC(C)C[C@H](NC(=O)[C@H](CO)NC(=O)[C@H](CO)NC(=O)[C@H](CCCNC(=N)N)NC(=O)[C@@H](NC(=O)[C@H](CO)NC(=O)[C@H](Cc1c[nH]cn1)NC(=O)[C@H](Cc1c[nH]cn1)NC(=O)[C@H](Cc1ccc(O)cc1)NC(=O)[C@H](CCCNC(=N)N)NC(=O)[C@H](CCC(=O)O)NC(=O)[C@@H](N)CC(C)C)C(C)C)C(=O)N[C@@H](CCCNC(=N)N)C(=O)N1CCC[C@H]1C(=O)O [compound 20] (H-LERYHHSVRSSLRP-OH; N-terminus and C-terminus assumed)	37
CC(C)C[C@H](N)C(=O)N[C@@H](CCC(=O)O)C(=O)N[C@@H](CCCNC(=N)N)C(=O)N[C@@H](Cc1ccc(O)cc1)C(=O)N[C@@H](Cc1c[nH]cn1)C(=O)N[C@@H](Cc1c[nH]cn1)C(=O)N[C@@H](CO)C(=O)N[C@H](C(=O)N[C@@H](CCCNC(=N)N)C(=O)N[C@@H](CO)C(=O)N[C@@H](CO)C(=O)O)C(C)C [compound 23] (H-LERYHHSVRSS-OH; N-terminus and C-terminus assumed)	23

Second part, the molecule after the results:

Percent Inhibition of CXCR4/CXCL12 Binding (400 nM peptide) [%]	SMILES
0	CC(C)C[C@H](NC(=O)[C@H](CO)NC(=O)[C@H](CO)NC(=O)[C@H](CCCNC(=N)N)NC(=O)[C@@H](NC(=O)[C@H](CO)NC(=O)[C@H](CC(N)=O)NC(=O)[C@H](Cc1c[nH]cn1)NC(=O)[C@H](Cc1ccc(O)cc1)NC(=O)[C@H](CCCNC(=N)N)NC(=O)[C@H](CCCNC(=N)N)NC(=O)[C@@H](N)CC(C)C)C(C)C)C(=O)N[C@@H](CCCNC(=N)N)C(=O)N1CCC[C@H]1C(=O)N[C@@H](Cc1ccc(O)cc1)C(=O)N[C@H](C(=O)N[C@@H](CCCCN)C(=O)O)[C@@H](C)O [compound 44] (H-LRRYHNSVRSSLRPYTK-OH; N-terminus and C-terminus assumed)
20	CC(C)C[C@H](NC(=O)[C@H](CO)NC(=O)[C@H](CO)NC(=O)[C@H](CCCNC(=N)N)NC(=O)[C@@H](C)NC(=O)[C@H](CO)NC(=O)[C@H](Cc1c[nH]cn1)NC(=O)[C@H](CCC(N)=O)NC(=O)[C@H](Cc1ccc(O)cc1)NC(=O)[C@H](CCCNC(=N)N)NC(=O)[C@H](CCC(=O)O)NC(=O)[C@@H](N)CC(C)C)C(=O)N[C@@H](CCCNC(=N)N)C(=O)N1CCC[C@H]1C(=O)N[C@@H](Cc1ccc(O)cc1)C(=O)N[C@H](C(=O)N[C@@H](CCCCN)C(=O)O)[C@@H](C)O [compound 49] (H-LERYQHS[dA]RSSLRPYTK-OH; N-terminus and C-terminus assumed)
4	CC(C)C[C@H](NC(=O)[C@H](CO)NC(=O)[C@H](CO)NC(=O)[C@H](CCC(=O)O)NC(=O)[C@@H](NC(=O)[C@H](CO)NC(=O)[C@H](Cc1c[nH]cn1)NC(=O)[C@H](Cc1c[nH]cn1)NC(=O)[C@H](Cc1ccc(O)cc1)NC(=O)[C@H](CCCNC(=N)N)NC(=O)[C@H](CCCNC(=N)N)NC(=O)[C@@H](N)CC(C)C)C(C)C)C(=O)N[C@@H](CCCNC(=N)N)C(=O)N1CCC[C@H]1C(=O)N[C@@H](Cc1ccc(O)cc1)C(=O)N[C@H](C(=O)N[C@@H](CCCCN)C(=O)O)[C@@H](C)O [compound 62] (H-LRRYHHSVESSLRPYTK-OH; N-terminus and C-terminus assumed)
−5	CC(C)C[C@H](NC(=O)[C@H](CO)NC(=O)[C@H](CO)NC(=O)[C@H](CCCNC(=N)N)NC(=O)[C@@H](C)NC(=O)[C@H](CO)NC(=O)[C@H](Cc1c[nH]cn1)NC(=O)[C@H](Cc1c[nH]cn1)NC(=O)[C@H](Cc1ccc(O)cc1)NC(=O)[C@H](CCCNC(=N)N)NC(=O)[C@H](CCCNC(=N)N)NC(=O)[C@@H](N)CC(C)C)C(=O)N[C@@H](CCC(=O)O)C(=O)N1CCC[C@H]1C(=O)N[C@@H](Cc1ccc(O)cc1)C(=O)N[C@H](C(=O)N[C@@H](CCCCN)C(=O)O)[C@@H](C)O [compound 65] (H-LRRYHHS[dA]RSSLEPYTK-OH; N-terminus and C-terminus assumed)
−10	CC(C)C[C@H](NC(=O)[C@H](CO)NC(=O)[C@H](CO)NC(=O)[C@H](CC(=O)O)NC(=O)[C@@H](C)NC(=O)[C@H](CO)NC(=O)[C@H](Cc1c[nH]cn1)NC(=O)[C@H](Cc1c[nH]cn1)NC(=O)[C@H](Cc1ccc(O)cc1)NC(=O)[C@H](CCCNC(=N)N)NC(=O)[C@H](CCCNC(=N)N)NC(=O)[C@@H](N)CC(C)C)C(=O)N[C@@H](CCCNC(=N)N)C(=O)N1CCC[C@H]1C(=O)N[C@@H](Cc1ccc(O)cc1)C(=O)N[C@H](C(=O)N[C@@H](CCCCN)C(=O)O)[C@@H](C)O [compound 68] (H-LRRYHHS[dA]DSSLRPYTK-OH; N-terminus and C-terminus assumed)
−5	CC(C)C[C@H](NC(=O)[C@H](CO)NC(=O)[C@H](CO)NC(=O)[C@H](CCCNC(=N)N)NC(=O)[C@@H](C)NC(=O)[C@H](CO)NC(=O)[C@H](Cc1c[nH]cn1)NC(=O)[C@H](Cc1c[nH]cn1)NC(=O)[C@H](Cc1ccc(O)cc1)NC(=O)[C@H](CCCNC(=N)N)NC(=O)[C@H](CCCNC(=N)N)NC(=O)[C@@H](N)CC(C)C)C(=O)N[C@@H](CC(=O)O)C(=O)N1CCC[C@H]1C(=O)N[C@@H](Cc1ccc(O)cc1)C(=O)N[C@H](C(=O)N[C@@H](CCCCN)C(=O)O)[C@@H](C)O [compound 69] (H-LRRYHHS[dA]RSSLDPYTK-OH; N-terminus and C-terminus assumed)
13	CC(C)C[C@H](NC(=O)[C@H](CO)NC(=O)[C@H](CO)NC(=O)[C@H](CCCNC(=N)N)NC(=O)[C@@H](NC(=O)[C@H](CO)NC(=O)[C@H](Cc1c[nH]cn1)NC(=O)[C@H](CCC(N)=O)NC(=O)[C@H](Cc1ccc(O)cc1)NC(=O)[C@H](CCCNC(=N)N)NC(=O)[C@H](CCC(=O)O)NC(=O)[C@@H](N)CC(C)C)C(C)C)C(=O)N[C@@H](CCCNC(=N)N)C(=O)N1CCC[C@H]1C(=O)N[C@@H](Cc1ccc(O)cc1)C(=O)N[C@H](C(=O)N[C@@H](CCCCN)C(=O)O)[C@@H](C)O [compound 48] (H-LERYQHSVRSSLRPYTK-OH; N-terminus and C-terminus assumed)
−4	CC(C)C[C@H](NC(=O)[C@H](CO)NC(=O)[C@H](CO)NC(=O)[C@H](CCCNC(=N)N)NC(=O)[C@@H](C)NC(=O)[C@H](CO)NC(=O)[C@H](CC(N)=O)NC(=O)[C@H](Cc1c[nH]cn1)NC(=O)[C@H](Cc1ccc(O)cc1)NC(=O)[C@H](CCCNC(=N)N)NC(=O)[C@H](CCC(=O)O)NC(=O)[C@@H](N)CC(C)C)C(=O)N[C@@H](CCCNC(=N)N)C(=O)N1CCC[C@H]1C(=O)N[C@@H](Cc1ccc(O)cc1)C(=O)N[C@H](C(=O)N[C@@H](CCCCN)C(=O)O)[C@@H](C)O [compound 46] (H-LERYHNS[dA]RSSLRPYTK-OH; N-terminus and C-terminus assumed)
